In paper PMC10143822, “Structural Adaptation of the Single-Stranded DNA-Binding Protein C-Terminal to DNA Metabolizing Partners Guides Inhibitor Design” (Pharmaceutics, 2023):
Primed or numbered codes have the meaning given here. Where no end group is shown, it is not given here. [ ]: non-standard residue; d: D form. 5,6‑carboxyfluorescein = 5,6-carboxyfluorescein; Phe(4-CF3) = N[C@@H](Cc1ccc(C(F)(F)F)cc1)C(=O)O; Phe(3-Cl) = N[C@@H](Cc1cccc(Cl)c1)C(=O)O; Phe(4-Cl) = N[C@@H](Cc1ccc(Cl)cc1)C(=O)O; NMeD = CN[C@@H](CC(=O)O)C(=O)O; Pip′ = not defined here

T1: E. coli Exonuclease I (E. coli, UniProt P04995 1-471)
T1 construct: Exonuclease I of E. coli, from plasmid pET14b-E. coli Exonuclease I (Addgene 104552); The His tag was cut off with thrombin only for the purified protein; also called ExoI; Exol; source: E. coli BL21 (DE3) pLysS, purified (Ni-NTA, heparin); also in cell lysate (pull-down)
T1 sequence: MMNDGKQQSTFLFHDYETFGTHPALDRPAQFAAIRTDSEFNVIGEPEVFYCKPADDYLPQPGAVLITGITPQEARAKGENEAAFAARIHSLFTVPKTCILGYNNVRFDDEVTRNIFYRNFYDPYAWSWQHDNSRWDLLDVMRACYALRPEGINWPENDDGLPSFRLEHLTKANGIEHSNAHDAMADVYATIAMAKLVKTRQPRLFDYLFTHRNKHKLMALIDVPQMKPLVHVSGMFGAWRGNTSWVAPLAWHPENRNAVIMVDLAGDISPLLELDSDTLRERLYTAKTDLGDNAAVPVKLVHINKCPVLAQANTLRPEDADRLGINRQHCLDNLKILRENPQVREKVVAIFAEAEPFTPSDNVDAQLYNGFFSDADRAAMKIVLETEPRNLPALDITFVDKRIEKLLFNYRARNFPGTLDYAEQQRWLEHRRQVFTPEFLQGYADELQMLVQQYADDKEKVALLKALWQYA

T2: Escherichia coli RecO (Escherichia coli, UniProt P0A7H3 1-242)
T2 construct: RecO of Escherichia coli, synthetic gene in pET28a+ with a TEV site at the 5' end; The His tag was cut off with TEV protease only for the purified protein; source: E. coli Rosetta, purified (Ni-NTA, heparin); also in cell lysate (pull-down); not shown: His tag, N-terminal, cleaved
T2 sequence: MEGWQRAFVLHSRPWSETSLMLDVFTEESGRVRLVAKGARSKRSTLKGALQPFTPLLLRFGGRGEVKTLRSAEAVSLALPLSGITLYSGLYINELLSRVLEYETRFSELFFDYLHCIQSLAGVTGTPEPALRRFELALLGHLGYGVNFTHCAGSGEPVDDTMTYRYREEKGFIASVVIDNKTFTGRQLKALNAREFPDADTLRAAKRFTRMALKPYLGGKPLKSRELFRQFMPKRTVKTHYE

B1: F-Leu6 (fluorescein-labelled single mutant) (peptide)
peptide: {5,6‑carboxyfluorescein}-GGDFDDDLPF
notes: two glycines between the 5,6-carboxyfluorescein and the peptide; E. coli SSB-Ct, residues 171-178; numbers count on: the octapeptide (position 1 = SSB residue 171); One of Compounds 54-62 of the Supplementary Material; also called F-mSSB Leu6; source: synthetic peptide
B2: E2-sSSB-Ct (Asp–4-CF3-Phe–Asp–Asp–Asp–Ile–Pro–4-CF3-Phe) (peptide)
peptide: Ac-D[Phe(4-CF3)]DDDIP[Phe(4-CF3)]
notes: SSB-Ct of E. coli SSB (residues 171-178), printed in three-letter code; F2 and F8 stand for 4-CF3-Phe; numbers count on: the octapeptide (position 1 = SSB residue 171); also called E2.SSB-Ct; source: synthetic peptide
B3: F-4CF3-Phe2 (fluorescein-labelled single mutant) (peptide)
peptide: {5,6‑carboxyfluorescein}-GGD[Phe(4-CF3)]DDDIPF
notes: two glycines between the 5,6-carboxyfluorescein and the peptide; E. coli SSB-Ct, residues 171-178; F at position 2 stands for 4-CF3-Phe; numbers count on: the octapeptide (position 1 = SSB residue 171); One of Compounds 54-62 of the Supplementary Material; also called F-mSSB 4CF3-Phe2; source: synthetic peptide
B4: F-4Cl-Phe2 (fluorescein-labelled single mutant) (peptide)
peptide: {5,6‑carboxyfluorescein}-GGD[Phe(4-Cl)]DDDIPF
notes: two glycines between the 5,6-carboxyfluorescein and the peptide; E. coli SSB-Ct, residues 171-178; F at position 2 stands for 4-Cl-Phe; numbers count on: the octapeptide (position 1 = SSB residue 171); One of Compounds 54-62 of the Supplementary Material; also called F-mSSB 4Cl-Phe2; source: synthetic peptide
B5: F-4CF3-Phe8 (fluorescein-labelled single mutant) (peptide)
peptide: {5,6‑carboxyfluorescein}-GGDFDDDIP[Phe(4-CF3)]
notes: two glycines between the 5,6-carboxyfluorescein and the peptide; E. coli SSB-Ct, residues 171-178; F at position 8 stands for 4-CF3-Phe; numbers count on: the octapeptide (position 1 = SSB residue 171); One of Compounds 54-62 of the Supplementary Material; also called F-mSSB 4CF3-Phe8; source: synthetic peptide
B6: R1-sSSB-Ct (Asp–4Cl-Phe–NM-Asp–Asp–Glu–Leu–Pro–3Cl-Phe) (peptide)
peptide: Ac-D[Phe(4-Cl)][NMeD]DELP[Phe(3-Cl)]
notes: SSB-Ct of E. coli SSB (residues 171-178) with combined modifications, printed in three-letter code; F2 stands for 4Cl-Phe, D3 for NM-Asp, F8 for 3Cl-Phe; numbers count on: the octapeptide (position 1 = SSB residue 171); source: synthetic peptide
B7: F-Pip7 (fluorescein-labelled single mutant) (peptide)
chain: {5,6‑carboxyfluorescein}-DFDDDI[Pip′]F
modifications: not fully specified

Assays:
RecO = target: T3, RecO (Escherichia coli, UniProt P0A7H3); test: biochemical; assay type: binding; conditions: 0.5 μM RecO, 50 nM F-wtSSB tracer, 0–500 μM unlabeled peptide, 30 min room temperature; 20 mM Tris-HCl pH 8.0, 200 mM NaCl, 10% glycerol, 0.01% Triton-X 100; 25 °C; triplicate; read-out: IC50 on RecO, competitive fluorescence anisotropy
T3 construct: His-tag (TEV site) (N, cleaved yes); made in house; host or cells: E. coli Rosetta cells
Description: (§1) Triplicate measurements were performed using a Clariostar Plus Microplate Reader in 384-well plates for all fluorescence anisotropy (FA) experiments. The settings were 25 °C, excitation at 485 nm, emission at 510 nm, settling time of 0.2 s, and 200 flashes per well.
(§2) Competition fluorescence anisotropy experiments were carried out as follows: protein (0.5 μM either ExoI or RecO) was incubated with 50 nM F-wtSSB peptide and 0–500 μM unlabeled wtSSB (or a variant) peptide for 30 min at room temperature. For direct fluorescence anisotropy measurements, 16 µM ExoI and 7.5 µM RecO were used in the first well. After serial dilution, either 50 nM of F-mSSB or F-sSSB was added to the wells and then incubated for 30 min. Buffers used included 20 mM Tris-HCl (pH 8.0), 100 mM NaCl, 1 mM MgCl2, 1 mM 2-mercaptoethanol, 10% (v/v) glycerol, for ExoI and 20 mM Tris-HCl (pH 8.0), 200 mM NaCl, 1 mM 2-mercaptoethanol, 10% (v/v) glycerol, and 0.01% Triton-X 100 for RecO [37].
(§3) Fluorescence anisotropy values were normalized and are shown as bound fractions (BF, %). BF=r−rmin/λ(rmax−r)+r−rmin, I=2∗PG+S, r=S−PG/I, where r: anisotropy, I: total intensity, P: perpendicular intensity, S: parallel intensity, G: an instrument factor set to 1, BF: ligand fraction bound, and λ=λbound/λunbound=1 .
(§4) Competitive fluorescence anisotropy was analyzed in Origin Pro 9.5, and IC50 values were determined using the Logistic Nonlinear fit function and are shown as plots for each mutated position for each protein in Figures S4 and S6. EC50 values from direct fluorescence anisotropy titrations were plotted in Origin 9.5. Values were determined using the Logistics Nonlinear fit function.

ExoI = target: T4, ExoI (Escherichia coli, UniProt P04995); test: biochemical; assay type: binding, E. coli
T4 construct: His-tag (cleaved yes); host or cells: E. coli BL21 (DE3) pLysS
T4 sequence (P04995 whole entry): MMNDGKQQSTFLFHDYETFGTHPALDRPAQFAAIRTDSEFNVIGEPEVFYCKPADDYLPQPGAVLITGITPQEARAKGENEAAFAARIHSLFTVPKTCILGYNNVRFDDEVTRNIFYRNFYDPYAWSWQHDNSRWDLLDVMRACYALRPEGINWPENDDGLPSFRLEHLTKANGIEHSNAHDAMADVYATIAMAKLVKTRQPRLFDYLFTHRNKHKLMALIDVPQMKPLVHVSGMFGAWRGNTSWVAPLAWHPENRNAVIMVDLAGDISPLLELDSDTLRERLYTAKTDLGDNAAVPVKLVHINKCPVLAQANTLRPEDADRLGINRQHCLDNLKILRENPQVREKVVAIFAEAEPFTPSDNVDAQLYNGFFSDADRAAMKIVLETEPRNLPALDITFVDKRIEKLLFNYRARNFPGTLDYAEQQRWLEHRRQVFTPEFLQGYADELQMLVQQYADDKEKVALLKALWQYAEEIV
Description: as §1, §2, §3, §4

E. coli Exonuclease I [1] = target: T1, E. coli Exonuclease I; test: fluorescence polarisation; direct fluorescence anisotropy: ExoI serially diluted from 16 µM, 50 nM fluorescein-labelled peptide, 30 min, 25 °C; 20 mM Tris-HCl pH 8.0, 100 mM NaCl, 1 mM MgCl2, 1 mM 2-mercaptoethanol, 10% glycerol; conditions: both partners purified
E. coli Exonuclease I [2] = target: T1, E. coli Exonuclease I; test: ITC; peptide in the syringe titrated into ExoI in the cell; 20 mM Tris–HCl pH 8.0, 100 mM NaCl, 1 mM MgCl2, 4% glycerol, 1 mM β-mercaptoethanol; model A + B = C, stoichiometry fixed to 1:1, incompetent fraction fitted; conditions: both partners purified
Escherichia coli RecO = target: T2, Escherichia coli RecO; test: ITC; peptide in the syringe titrated into RecO in the cell; 50 mM HEPES pH 7.5, 50 mM NaCl, 25% glycerol, 1 mM TCEP; model A + B = C, stoichiometry fixed to 1:1, incompetent fraction fitted; conditions: both partners purified

| Molecule | IC50 (RecO) | IC50 (ExoI) | EC50 (E. coli Exonuclease I [1]) | also measured |
| --- | --- | --- | --- | --- |
| Ac-DFDEDIPF [Glu4] | 5.68 ± 0.59 µM | 3.58 ± 0.11 µM |  |  |
| Ac-DFDNDIPF [Asn4] | 15.7 ± 3.54 µM | 6.02 ± 0.3 µM |  |  |
| Ac-DFEDDIPF [Glu3] | 5.81 ± 1.65 µM | 4.03 ± 0.24 µM |  |  |
| Ac-DFNDDIPF [Asn3] | 14.2 ± 1.8 µM | 6.36 ± 0.36 µM |  |  |
| Ac-EFDDDIPF [Glu1] | 5.17 ± 1.1 µM | 1.33 ± 0.09 µM |  |  |
| Ac-NFDDDIPF [Asn1] | 13.8 ± 17.2 µM | 9.31 ± 0.4 µM |  |  |
| B1 |  |  | 0.2 ± 0.03 µM |  |
| B2 |  |  |  | dH (E. coli Exonuclease I [2]): -13.4 kcal/mol; stoichiometry N (E. coli Exonuclease I [2]): 0.885 |
| B3 |  |  | 0.04 ± 0.002 µM |  |
| B4 |  |  | 0.15 ± 0.02 µM |  |
| B5 |  |  | 0.09 ± 0.01 µM |  |
| B6 |  |  |  | Kd (Escherichia coli RecO): 0.13 µM; dH (Escherichia coli RecO): -6.79 kcal/mol; stoichiometry N (Escherichia coli RecO): 0.935 |
| B7 |  |  | 0.09 ± 0.01 µM |  |
